Target: T1, human plasma renin (Homo sapiens, UniProt P00797)
T1 construct: human plasma renin activity; from tissue; host or cells: human plasma
T1 sequence (P00797 67-406): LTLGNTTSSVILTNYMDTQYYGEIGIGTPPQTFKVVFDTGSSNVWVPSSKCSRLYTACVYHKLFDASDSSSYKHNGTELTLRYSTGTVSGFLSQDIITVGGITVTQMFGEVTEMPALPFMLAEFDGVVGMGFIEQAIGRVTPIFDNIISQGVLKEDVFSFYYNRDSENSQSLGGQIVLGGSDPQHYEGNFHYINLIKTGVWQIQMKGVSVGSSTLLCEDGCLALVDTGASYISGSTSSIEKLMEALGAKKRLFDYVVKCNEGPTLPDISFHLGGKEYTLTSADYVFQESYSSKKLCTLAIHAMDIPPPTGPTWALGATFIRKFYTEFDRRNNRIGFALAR
Assay: inhibitory action on the human plasma renin activity
Type: biochemical
Details: pH=6, method of European patent application No. 104,964, read-out: IC50 (dose of compound under study which causes 50% inhibition of the human plasma renin activity)
Description: The peptide so obtained was studied for determining its inhibitory action on the human plasma renin activity using the method described in European patent application No. 104,964.

IC50: 1000 nM
Substance: BOC-Phe-Nle-APHBA-Ala-Sta-OCH3 [SR 44205]
